Consider 18 molecules from patent US9593107B2, “Dihydroquinoline-2-one derivatives” (Hoffmann-La Roche Inc., priority 2014, dated 2017).

Assay [1] deals with patients with primary aldosteronism. The following applies: oral; cited from earlier work.
For a further assay, the target named is T1, human CYP11B1 (Homo sapiens, UniProt P15538).
T1 construct: expressed in transfected cells
T1 sequence (P15538 25-503): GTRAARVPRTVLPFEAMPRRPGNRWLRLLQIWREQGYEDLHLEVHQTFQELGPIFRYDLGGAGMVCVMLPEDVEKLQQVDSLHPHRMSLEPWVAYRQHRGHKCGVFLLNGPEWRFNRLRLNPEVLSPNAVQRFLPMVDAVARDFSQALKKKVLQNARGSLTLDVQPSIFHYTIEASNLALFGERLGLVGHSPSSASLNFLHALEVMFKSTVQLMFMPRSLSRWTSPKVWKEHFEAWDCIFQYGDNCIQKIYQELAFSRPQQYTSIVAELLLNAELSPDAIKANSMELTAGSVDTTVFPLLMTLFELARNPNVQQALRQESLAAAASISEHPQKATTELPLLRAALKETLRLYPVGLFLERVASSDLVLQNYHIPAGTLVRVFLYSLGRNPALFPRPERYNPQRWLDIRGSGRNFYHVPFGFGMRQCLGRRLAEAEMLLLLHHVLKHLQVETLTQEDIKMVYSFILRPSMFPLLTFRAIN
In words: G-402 cellular enzyme assay, human CYP11B1 (cortisol release, HTRF). The format is cell-based. The note with it: G-402 cells expressing human CYP11B1; 1 μM Deoxycortisol. From the text: (§1) Herein we identified the use of the G-402 cell line as a host cell to ectopically express (transiently or stably) enzymes of the CYP11 family. Specifically we developed stable G-402 cells expressing ectopically human CYP11B1, human CYP11B2, human CYP11A1, cynmolgus CYP11B1 or cynomolgus CYP11B2 enzyme activity. Importantly the identified cell line G-402 expresses co-factors (adrenodoxin and adrenodoxin reductase) important for the activity of the CYP11 family and no relevant enzyme activity of the CYP11 family (in comparison to H295R cells) was detected in these cells. Therefore the G-402 cell line is uniquely suited as a host cell for the ectopic expression of enzymes from the CYP11 family.
(§2) The expression plasmids contains the ORF for either human/cyno CYP11B1 or CYP11B2 under the control of a suitable promoter (CMV-promoter) and a suitable resistance marker (neomycin). Using standard techniques the expression plasmid is transfected into G-402 cells and these cells are then selected for expressing the given resistance markers. Individual cell-clones are then selected and assessed for displaying the desired enzymatic activity using 11-Deoxycorticosterone (Cyp11B2) or 11-Deoxycortisol (Cyp11B1) as a substrate.
(§3) G-402 cells expressing CYP11 constructs were established as described above and maintained in McCoy's 5a Medium Modified, ATCC Catalog No. 30-2007 containing 10% FCS and 400 μg/ml G418 (Geneticin) at 37° C. under an atmosphere of 5% CO2/95% air.
(§4) Cellular enzyme assays were performed in DMEM/F12 medium containing 2.5% charcoal treated FCS and appropriate concentration of substrate (0.3-10 uM 11-Deoxycorticosterone, 11-Deoxycortisol or Corticosterone). For assaying enzymatic activity, cells were plated onto 96 well plates and incubated for 16 h. An aliquot of the supernatant is then transferred and analyzed for the concentration of the expected product (Aldosterone for CYP11B2; Cortisol for CYP11B1). The concentrations of these steroids can be determined using HTRF assays from CisBio analyzing either Aldosterone or Cortisol.
(§5) Inhibition of the release of produced steroids can be used as a measure of the respective enzyme inhibition by test compounds added during the cellular enzyme assay. The dose dependent inhibition of enzymatic activity by a compound is calculated by means of plotting added inhibitor concentrations (x-axes) vs. measured steroid/product level (y-axes). The inhibition is then calculated by fitting the following 4-parameter sigmoidal function (Morgan-Mercer-Flodin (MMF) model) to the raw data points using the least squares method:
(§6) [formula] wherein, A is the maximum y value, B is the EC50 factor determined using XLFit, C is the minimum y value and D is the slope value.
(§7) EC50 values for compounds claimed herein were tested with the G402-based assay system described. Cyp11B2 enzyme activity was tested in presence of 1 μM Deoxycorticosterone and variable amounts of inhibitors; Cyp11B1 enzyme activity was tested in presence of 1 μM Deoxycortisol and variable amounts of inhibitors.

For the next assay, the target named is T2, human CYP11B2 (Homo sapiens, UniProt P19099).
T2 construct: expressed in transfected cells
T2 sequence (P19099 25-503): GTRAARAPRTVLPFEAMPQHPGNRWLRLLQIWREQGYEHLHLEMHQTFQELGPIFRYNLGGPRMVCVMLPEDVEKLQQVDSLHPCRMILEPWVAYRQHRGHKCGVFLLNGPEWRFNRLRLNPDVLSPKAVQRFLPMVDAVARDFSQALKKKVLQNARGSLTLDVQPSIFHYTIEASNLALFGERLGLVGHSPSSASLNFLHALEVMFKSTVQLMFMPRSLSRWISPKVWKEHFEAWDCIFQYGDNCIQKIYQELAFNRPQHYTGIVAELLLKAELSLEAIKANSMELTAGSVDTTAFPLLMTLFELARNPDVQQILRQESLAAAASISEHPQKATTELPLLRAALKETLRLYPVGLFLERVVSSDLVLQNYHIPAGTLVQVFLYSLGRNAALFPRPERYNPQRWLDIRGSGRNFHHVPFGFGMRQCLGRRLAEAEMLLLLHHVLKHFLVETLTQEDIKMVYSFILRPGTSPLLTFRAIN
In words: G-402 cellular enzyme assay, human CYP11B2 (aldosterone release, HTRF). The note with it: G-402 cells expressing human CYP11B2; 1 μM Deoxycorticosterone. The assay is classed as cell-based.
Description: as §1, §2, §3, §4, §5, §6, §7

Assay [2] has as its system rat model of chronic kidney disease. The note with it: cited from earlier work; for cardiac and aortic medial hypertrophy / renal effects of angiotensin II and high salt (albuminuria, azotemia, renovascular hypertrophy, glomerular injury, PAI-1 and osteopontin mRNA, tubulointerstitial fibrosis): rat, in vivo.
In assay [3] the test system is rats with experimental heart failure. The note with it: rat, in vivo; cited from earlier work.

Regarding `N#Cc1ccc([C@H]2CCc3cncn32)c(F)c1` [LCI699], in assay [1], the blood pressure result is on record as “mildly decreased”, the circulating aldosterone levels result is on record as “significantly lower”, the hypokalemia entry was “corrected” and the “selectivity (effects on the glucocorticoid axis)” value is “poor selectivity”.
As for `CN1C(=O)CCc2cc(-c3cncc(Cn4cc(Cl)ccc4=O)c3)c(F)cc21` [Example 21, 6-[5-(5-Chloro-2-oxo-2H-pyridin-1-ylmethyl)-pyridin-3-yl]-7-fluoro-1-methyl-3,4-dihydro-1H-quinolin-2-one], the EC50 at human CYP11B1 was determined as 569 nM; on human CYP11B2 it was 15.1 nM.
For `Cc1c(Cn2cccc(F)c2=O)cncc1-c1cc2c(cc1F)N(C)C(=O)CC2` [Example 26, 7-Fluoro-6-[5-(3-fluoro-2-oxo-2H-pyridin-1-ylmethyl)-4-methyl-pyridin-3-yl]-1-methyl-3,4-dihydro-1H-quinolin-2-one] the same measures were 44.8 nM and 1 nM.
As to `CN1C(=O)CCc2cc(-c3cncc(Cn4c(=O)sc5ccccc54)c3)ccc21` [Example 1, 1-Methyl-6-[5-(2-oxo-benzothiazol-3-ylmethyl)-pyridin-3-yl]-3,4-dihydro-1H-quinolin-2-one], the EC50 on human CYP11B1 was found to be 177 nM; on human CYP11B2, 1.4 nM.
For `CN1C(=O)CCc2cc(-c3cncc(Cn4cccnc4=O)c3)ccc21` [Example 13, 1-Methyl-6-[5-(2-oxo-2H-pyrimidin-1-ylmethyl)-pyridin-3-yl]-3,4-dihydro-1H-quinolin-2-one] the same measures were 5570 nM and 89.2 nM.
For `CN1C(=O)CCc2cc(-c3cncc(Cn4ccc(C#N)cc4=O)c3)ccc21` [Example 14, 1-[5-(1-Methyl-2-oxo-1,2,3,4-tetrahydro-quinolin-6-yl)-pyridin-3-ylmethyl]-2-oxo-1,2-dihydro-pyridine-4-carbonitrile] the same measures were 356 nM and 8.8 nM.
Taken in the same sequence, the figures for `CN1C(=O)CCc2cc(-c3cncc(Cn4cc(C(F)(F)F)ccc4=O)c3)ccc21` [Example 15, 1-Methyl-6-[5-(2-oxo-5-trifluoromethyl-2H-pyridin-1-ylmethyl)-pyridin-3-yl]-3,4-dihydro-1H-quinolin-2-one] were 680 nM and 19.6 nM.
For the molecule `CC(=O)S[C@@H]1CC2=CC(=O)CC[C@]2(C)[C@H]2CC[C@@]3(C)[C@@H](CC[C@@]34CCC(=O)O4)[C@H]12` [spironolactone], the aldosterone result in assay [2] (at 4 and 8 weeks of treatment) was “increased”. In assay [2] (in the aorta and the heart), the “angiotensin II and salt-stimulated PAI-1 mRNA expression” value was “enhanced”. In assay [2], the “cardiac and aortic medial hypertrophy” value is recorded as “attenuated”; the “renal effects of angiotensin II and high salt (albuminuria, azotemia, renovascular hypertrophy, glomerular injury, PAI-1 and osteopontin mRNA, tubulointerstitial fibrosis)” value is on record as “prevented”.
On to `CN1C(=O)CCc2cc(-c3cncc(Cn4ccccc4=O)c3)ccc21` [Example 10, 1-Methyl-6-[5-(2-oxo-2H-pyridin-1-ylmethyl)-pyridin-3-yl]-3,4-dihydro-1H-quinolin-2-one], for which the EC50 is 1230 nM at human CYP11B1 and 29 nM on human CYP11B2.
For `CN1C(=O)CCc2cc(-c3cncc(Cn4cccc(Cl)c4=O)c3)ccc21` [Example 4, 6-[5-(3-Chloro-2-oxo-2H-pyridin-1-ylmethyl)-pyridin-3-yl]-1-methyl-3,4-dihydro-1H-quinolin-2-one] the same measures were 1220 nM and 29.3 nM.
For `CN1C(=O)CCc2cc(-c3cncc(Cn4cccc(F)c4=O)c3)c(F)cc21` [Example 19, 7-Fluoro-6-[5-(3-fluoro-2-oxo-2H-pyridin-1-ylmethyl)-pyridin-3-yl]-1-methyl-3,4-dihydro-1H-quinolin-2-one] the same measures were 23.8 nM and 0.5 nM.
With `CN1C(=O)CCc2cc(-c3cncc(Cn4c(F)cccc4=O)c3)ccc21` [Example 18, 6-[5-(6-Fluoro-2-oxo-2H-pyridin-1-ylmethyl)-pyridin-3-yl]-1-methyl-3,4-dihydro-1H-quinolin-2-one], the figures for the EC50 on human CYP11B1 and at human CYP11B2 were 172 nM and 4.1 nM, respectively.
For `CN1C(=O)CCc2cc(-c3cncc(Cn4cc(C#N)ccc4=O)c3)ccc21` [Example 16, 1-[5-(1-Methyl-2-oxo-1,2,3,4-tetrahydro-quinolin-6-yl)-pyridin-3-ylmethyl]-6-oxo-1,6-dihydro-pyridine-3-carbonitrile] the same measures were 2420 nM and 67.3 nM.
For `Cc1c(Cn2c(F)cccc2=O)cncc1-c1cc2c(cc1F)N(C)C(=O)CC2` [Example 27, 7-Fluoro-6-[5-(6-fluoro-2-oxo-2H-pyridin-1-ylmethyl)-4-methyl-pyridin-3-yl]-1-methyl-3,4-dihydro-1H-quinolin-2-one] the same measures were 91.3 nM and 1 nM.
As to `N#Cc1ccc([C@H]2CCCc3cncn32)cc1` [FAD286], in assay [3], the “blood pressure and cardiovascular function and structure” value is recorded as “improved”; the “kidney function and morphology” value is given as “improve”. Also, the plasma aldosterone entry in assay [2] (following 4 weeks of treatment) is listed as “reduced”. For the same molecule, in assay [2], the “cardiac and aortic medial hypertrophy” value was “attenuated”; the “renal effects of angiotensin II and high salt (albuminuria, azotemia, renovascular hypertrophy, glomerular injury, PAI-1 and osteopontin mRNA, tubulointerstitial fibrosis)” value is “prevented”.
Consider `CN1C(=O)CCc2cc(-c3cncc(Cn4cc(F)ccc4=O)c3)ccc21` [Example 2, 6-[5-(5-Fluoro-2-oxo-2H-pyridin-1-ylmethyl)-pyridin-3-yl]-1-methyl-3,4-dihydro-1H-quinolin-2-one], for which the EC50 worked out at 935 nM on human CYP11B1 and 18.5 nM at human CYP11B2.
As for `Cc1nccc(=O)n1Cc1cncc(-c2ccc3c(c2)CCC(=O)N3C)c1` [Example 12, 1-Methyl-6-[5-(2-methyl-6-oxo-6H-pyrimidin-1-ylmethyl)-pyridin-3-yl]-3,4-dihydro-1H-quinolin-2-one], the EC50 at human CYP11B1 was 256 nM; at human CYP11B2, 7.4 nM.
Taken in the same sequence, the figures for `CN1C(=O)CCc2cc(-c3cncc(Cn4c(Cl)cccc4=O)c3)c(F)cc21` [Example 22, 6-[5-(6-Chloro-2-oxo-2H-pyridin-1-ylmethyl)-pyridin-3-yl]-7-fluoro-1-methyl-3,4-dihydro-1H-quinolin-2-one] were 7.1 nM and 0.2 nM.
